Assay results: patent US9976141B2, “Compositions and methods for inhibiting gene expression of Hif2alpha” (Arrowhead Madison Inc., priority 2015, dated 2018)
Strand notation (5' to 3'): a small letter for the sugar, then the base; units joined by * are phosphorothioate-linked, units joined directly phosphodiester-linked; [ ] holds rarer units or linkages, { } end groups; capitals alone tell only the bases. d = 2'-deoxy (DNA); m = 2'-O-methyl; f = 2'-fluoro

System: human EPAS1 (Hif2α) cDNA in psiCHECK2 (Renilla luciferase/EPAS1 fusion mRNA) in Hep3B cells
Assay: Efficacy screen of Hif2α RNAi triggers in vitro, dual-luciferase reporter assay (1 nM and 0.1 nM)
Format: cell-based
Settings: Hep3B cells co-transfected with EPAS1-psiCHECK2, Renilla luciferase normalized to firefly luciferase
How it was run: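 Hep3B cells (10,000/well) co-transfected with chemically modified siRNA triggers at 1 nM and 0.1 nM plus 25 ng EPAS1-psiCHECK2 plasmid via LipoFectamine 2000. Knockdown measured as Renilla luciferase from the EPAS1 fusion mRNA, normalized to constitutive firefly luciferase by dual-luciferase assay.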

Substance	Relative Rluc-Hif2α (0.1 nM RNAi trigger)	Relative Rluc-Hif2α (1 nM RNAi trigger)
2284 (sense fGmCfAmUfGmGfGmGfGmCfUmAfCmGfUmGfUmGfAdT; antisense dTfCmAfCmAfCmGfUmAfGmCfCmCfCmCfAmUfGmCdT*dT; siRNA) [compound 2284]	1.227 ± 0.266	0.787 ± 0.062
2291 (sense fUmCfGmGfGmAfAmUfCmAfGmAfAmCfUmUfCmGfAdT; antisense dTfCmGfAmAfGmUfUmCfUmGfAmUfUmCfCmCfGmAdT*dT; siRNA) [compound 2291]	0.911 ± 0.092	0.434 ± 0.046
2364 (sense fGmGfUmCfUmGfAmUfGmGfCmAfCmGfUmUfGmUfAdT; antisense dTfAmCfAmAfCmGfUmGfCmCfAmUfCmAfGmAfCmCdT*dT; siRNA) [compound 2364]	1.070 ± 0.042	0.855 ± 0.282
2304 (sense fAmUfGmCfCmGfGmAfAmGfCmAfAmAfGmCfAmUfAdT; antisense dTfAmUfGmCfUmUfUmGfCmUfUmCfCmGfGmCfAmUdT*dT; siRNA) [compound 2304]	0.528 ± 0.116	0.302 ± 0.025
2319 (sense fCmUfUmUfGmAfUmGfCmCfGmGfAmCfAmAfGmCfAdT; antisense dTfGmCfUmUfGmUfCmCfGmGfCmAfUmCfAmAfAmGdT*dT; siRNA) [compound 2319]	0.454 ± 0.101	0.234 ± 0.055
2315 (sense fGmGfCmUfCmGfAmGfGmCfCmCfAmGfAmCfGmUfAdT; antisense dTfAmCfGmUfCmUfGmGfGmCfCmUfCmGfAmGfCmCdT*dT; siRNA) [compound 2315]	0.781 ± 0.206	0.876 ± 0.099
2281 (sense fUmGfCmUfCmGfCmAfAmAfGmCfAmUfGmGfGmGfAdT; antisense dTfCmCfCmCfAmUfGmCfUmUfUmGfCmGfAmGfCmAdT*dT; siRNA) [compound 2281]	0.914 ± 0.177	0.651 ± 0.041
2266 (sense fCmUfGmAfUmUfGmGfUmUfAmCfCmAfCmCfCmUfAdT; antisense dTfAmGfGmGfUmGfGmUfAmAfCmCfAmAfUmCfAmGdT*dT; siRNA) [compound 2266]	0.808 ± 0.062	0.368 ± 0.046
2318 (sense fGmGfUmAfGmCfCmCfUmCfUmCfCmAfAmCfAmAfAdT; antisense dTfUmUfGmUfUmGfGmAfGmAfGmGfGmCfUmAfCmCdT*dT; siRNA) [compound 2318]	0.885 ± 0.370	0.780 ± 0.103
2322 (sense fGmGfAmCfAmAfGmCfCmAfCmUfGmAfGmCfGmCfAdT; antisense dTfGmCfGmCfUmCfAmGfUmGfGmCfUmUfGmUfCmCdT*dT; siRNA) [compound 2322]	0.468 ± 0.012	0.306 ± 0.059
2368 (sense fCmAfCmGfUmUfGmUfGmGfGmGfUmCfGmGfGmGfAdT; antisense dTfCmCfCmCfGmAfCmCfCmCfAmCfAmAfCmGfUmGdT*dT; siRNA) [compound 2368]	1.036 ± 0.063	1.140 ± 0.221
2314 (sense fAmAfAmGfGmGfUmUfUmUfGmGfGmGfCmUfCmGfAdT; antisense dTfCmGfAmGfCmCfCmCfAmAfAmAfCmCfCmUfUmUdT*dT; siRNA) [compound 2314]	0.692 ± 0.141	0.920 ± 0.150
2392 (sense fCmAfUmUfAmAfGmGfGmCfAmUfUmUfUmAfCmCfAdT; antisense dTfGmGfUmAfAmAfAmUfGmCfCmCfUmUfAmAfUmGdT*dT; siRNA) [compound 2392]	0.636 ± 0.039	0.283 ± 0.052
2348 (sense fCmCfAmCfGmGfCmCfUmGfUmAfCmGfGmAfCmAfAdT; antisense dTfUmGfUmCfCmGfUmAfCmAfGmGfCmCfGmUfGmGdT*dT; siRNA) [compound 2348]	0.840 ± 0.270	0.454 ± 0.096
2243 (sense fUmUfCmAfUmGfGmGfAmCfUmUfAmCfAmCfAmGfAdT; antisense dTfCmUfGmUfGmUfAmAfGmUfCmCfCmAfUmGfAmAdT*dT; siRNA) [compound 2243]	0.688 ± 0.059	0.694 ± 0.107
2390 (sense fAmCfUmAfUmUfUmAfGmUfAmAfGmCfCmCfGmGfAdT; antisense dTfCmCfGmGfGmCfUmUfAmCfUmAfAmAfUmAfGmUdT*dT; siRNA) [compound 2390]	0.772 ± 0.175	0.568 ± 0.108
2403 (sense fCmCfUmGfUmCfAmAfCmGfUmAfAmCfGmAfUmUfAdT; antisense dTfAmAfUmCfGmUfUmAfCmGfUmUfGmAfCmAfGmGdT*dT; siRNA) [compound 2403]	0.930 ± 0.132	0.568 ± 0.106
2245 (sense fAmCfAmCfAmGfGmUfGmGfAmGfCmUfAmAfCmAfAdT; antisense dTfUmGfUmUfAmGfCmUfCmCfAmCfCmUfGmUfGmUdT*dT; siRNA) [compound 2245]	0.761 ± 0.039	0.727 ± 0.066

Substance	Relative Rluc-Hif2α (0.1 nM RNAi trigger)	Relative Rluc-Hif2α (1 nM RNAi trigger)
2311 (sense fCmCfAmCfAmAfAmGfUmGfGmGfCmCfGmUfCmGfAdT; antisense dTfCmGfAmCfGmGfCmCfCmAfCmUfUmUfGmUfGmGdT*dT; siRNA) [compound 2311]	0.888 ± 0.051	0.841 ± 0.130
2409 (sense fUmUfAmUfAmUfUmGfUmCfGmAfAmUfUmCfCmUfAdT; antisense dTfAmGfGmAfAmUfUmCfGmAfCmAfAmUfAmUfAmAdT*dT; siRNA) [compound 2409]	0.301 ± 0.085	0.104 ± 0.020
2376 (sense fGmAfUmGfGmUfCmUfUmUfCmAfCmAfCmGfGmCfAdT; antisense dTfGmCfCmGfUmGfUmGfAmAfAmGfAmCfCmAfUmCdT*dT; siRNA) [compound 2376]	0.546 ± 0.115	0.228 ± 0.029
2259 (sense fUmCfAmCfCmAfAmCfAmGfAmGfGmCfCmGfUmAfAdT; antisense dTfUmAfCmGfGmCfCmUfCmUfGmUfUmGfGmUfGmAdT*dT; siRNA) [compound 2259]	0.743 ± 0.086	0.836 ± 0.110
2320 (sense fUmUfUmGfAmUfGmCfCmGfGmAfCmAfAmGfCmCfAdT; antisense dTfGmGfCmUfUmGfUmCfCmGfGmCfAmUfCmAfAmAdT*dT; siRNA) [compound 2320]	0.770 ± 0.312	0.486 ± 0.059
2349 (sense fAmCfGmGfCmCfUmGfUmAfCmGfGmAfCmAfCmUfAdT; antisense dTfAmGfUmGfUmCfCmGfUmAfCmAfGmGfCmCfGmUdT*dT; siRNA) [compound 2349]	0.674 ± 0.172	0.504 ± 0.062
2283 (sense fAmGfCmAfUmGfGmGfGmGfCmUfAmCfGmUfGmUfAdT; antisense dTfAmCfAmCfGmUfAmGfCmCfCmCfCmAfUmGfCmUdT*dT; siRNA) [compound 2283]	1.175 ± 0.194	0.882 ± 0.026
2394 (sense fAmGfCmUfUmCfAmUfAmUfUmAfAmCfCmCfUmAfAdT; antisense dTfUmAfGmGfGmUfUmAfAmUfAmUfGmAfAmGfCmUdT*dT; siRNA) [compound 2394]	0.533 ± 0.076	0.254 ± 0.026
2282 (sense fCmGfCmAfAmAfGmCfAmUfGmGfGmGfGmCfUmAfAdT; antisense dTfUmAfGmCfCmCfCmCfAmUfGmCfUmUfUmGfCmGdT*dT; siRNA) [compound 2282]	1.209 ± 0.132	0.824 ± 0.155
2385 (sense fUmGfGmUfUmUfUmUfCmAfAmUfAmCfCmAfAmUfAdT; antisense dTfAmUfUmGfGmUfAmUfUmGfAmAfAmAfAmCfCmAdT*dT; siRNA) [compound 2385]	0.701 ± 0.178	0.515 ± 0.089
2321 (sense fUmUfGmAfUmGfCmCfGmGfAmCfAmAfGmCfCmAfAdT; antisense dTfUmGfGmCfUmUfGmUfCmCfGmGfCmAfUmCfAmAdT*dT; siRNA) [compound 2321]	0.561 ± 0.043	0.665 ± 0.033
2412 (sense fUmCfCmUfAmCfUmGfAmCfAmAfCmAfUmUfAmUfAdT; antisense dTfAmUfAmAfUmGfUmUfGmUfCmAfGmUfAmGfGmAdT*dT; siRNA) [compound 2412]	0.515 ± 0.037	0.291 ± 0.014
2269 (sense fAmUfGmAfAmUfUmCfUmAfCmCfAmUfGmCfGmCfAdT; antisense dTfGmCfGmCfAmUfGmGfUmAfGmAfAmUfUmCfAmUdT*dT; siRNA) [compound 2269]	0.530 ± 0.097	0.302 ± 0.080
2377 (sense fUmGfGmUfCmUfUmUfCmAfCmAfCmGfGmCfAmCfAdT; antisense dTfGmUfGmCfCmGfUmGfUmGfAmAfAmGfAmCfCmAdT*dT; siRNA) [compound 2377]	0.900 ± 0.189	0.958 ± 0.189
2248 (sense fCmUfAmAfCmAfGmGfAmCfAmUfAmGfUmAfUmCfAdT; antisense dTfGmAfUmAfCmUfAmUfGmUfCmCfUmGfUmUfAmGdT*dT; siRNA) [compound 2248]	0.215 ± 0.007	0.148 ± 0.036
2285 (sense fCmAfUmCfUmAfCmAfAmCfCmCfUmCfGmCfAmAfAdT; antisense dTfUmUfGmCfGmAfGmGfGmUfUmGfUmAfGmAfUmGdT*dT; siRNA) [compound 2285]	1.109 ± 0.247	0.723 ± 0.088
2331 (sense fGmGfUmGfAmAfCmGfUmGfCmCfCmGfUmGfCmUfAdT; antisense dTfAmGfCmAfCmGfGmGfCmAfCmGfUmUfCmAfCmCdT*dT; siRNA) [compound 2331]	1.002 ± 0.321	0.783 ± 0.080
